{
  "source": "the supplement of paper PMC10307832",
  "assay_in_all_cases": "relative viability (nuclei count vs DMSO), 5 days (fraction); higher = more cells survive",
  "key": {"[1]": {"system": "EKVX", "method_in_brief": "(§1)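 Relative viability was taken as the ratio of nuclei in treated wells to nuclei in vehicle wells. Lung cancer cell lines in 1536-well plates received compounds by pin tool one day after seeding, either one drug alone or a fixed anchor-drug dose plus five library-drug doses (not always all listed) in √10 steps. Nuclei were counted on 4× images after 5 days of treatment, and values are medians of duplicate plates.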"}, "[2]": {"system": "H3255", "method_in_brief": "as §1"}, "[3]": {"system": "HCC-15", "method_in_brief": "as §1"}, "[4]": {"system": "HCC-827", "method_in_brief": "as §1"}, "[5]": {"system": "LCLC-97TM1", "method_in_brief": "as §1"}, "[6]": {"system": "LK-2", "method_in_brief": "as §1"}, "[7]": {"system": "NCI-H1355", "method_in_brief": "as §1"}, "[8]": {"system": "NCI-H1650", "method_in_brief": "as §1"}, "[9]": {"system": "NCI-H1734", "method_in_brief": "as §1"}, "[10]": {"system": "NCI-H1755", "method_in_brief": "as §1"}, "[11]": {"system": "NCI-H1975", "method_in_brief": "as §1"}, "[12]": {"system": "NCI-H2342", "method_in_brief": "as §1"}, "[13]": {"system": "NCI-H2405", "method_in_brief": "as §1"}, "[14]": {"system": "NCI-H322M", "method_in_brief": "as §1"}, "[15]": {"system": "NCI-H520", "method_in_brief": "as §1"}, "[16]": {"system": "NCI-H661", "method_in_brief": "as §1"}, "[17]": {"system": "PC-14", "method_in_brief": "as §1"}, "[18]": {"system": "PC-3 [JPC-3]", "method_in_brief": "as §1"}, "[19]": {"system": "RERF-LC-KJ", "method_in_brief": "as §1"}},
  "data": [
    {"smiles": "Nc1ccn([C@@H]2O[C@H](CO)[C@@H](O)[C@@H]2O)c(=O)n1", "note": "[Cytarabine] + Nc1ncn([C@H]2C[C@H](O)[C@@H](CO)O2)c(=O)n1 [Decitabine] (partner 2 µM)", "values": [
      {"measurement": "relative viability", "setting": "[1]; first compound 0.005 µM", "result": 0.485},
      {"measurement": "relative viability", "setting": "[1]; first compound 0.01581 µM", "result": 0.282},
      {"measurement": "relative viability", "setting": "[1]; first compound 0.05 µM", "result": 0.259},
      {"measurement": "relative viability", "setting": "[1]; first compound 0.5 µM", "result": 0.184},
      {"measurement": "relative viability", "setting": "[2]; first compound 0.005 µM", "result": 0.732},
      {"measurement": "relative viability", "setting": "[2]; first compound 0.01581 µM", "result": 0.555},
      {"measurement": "relative viability", "setting": "[2]; first compound 0.05 µM", "result": 0.637},
      {"measurement": "relative viability", "setting": "[2]; first compound 0.1581 µM", "result": 0.588},
      {"measurement": "relative viability", "setting": "[2]; first compound 0.5 µM", "result": 0.375},
      {"measurement": "relative viability", "setting": "[3]; first compound 0.005 µM", "result": 0.511},
      {"measurement": "relative viability", "setting": "[3]; first compound 0.01581 µM", "result": 0.528},
      {"measurement": "relative viability", "setting": "[3]; first compound 0.05 µM", "result": 0.594},
      {"measurement": "relative viability", "setting": "[3]; first compound 0.1581 µM", "result": 0.462},
      {"measurement": "relative viability", "setting": "[3]; first compound 0.5 µM", "result": 0.464},
      {"measurement": "relative viability", "setting": "[4]; first compound 0.005 µM", "result": 0.232},
      {"measurement": "relative viability", "setting": "[4]; first compound 0.01581 µM", "result": 0.239},
      {"measurement": "relative viability", "setting": "[4]; first compound 0.05 µM", "result": 0.182},
      {"measurement": "relative viability", "setting": "[4]; first compound 0.1581 µM", "result": 0.152},
      {"measurement": "relative viability", "setting": "[4]; first compound 0.5 µM", "result": 0.167},
      {"measurement": "relative viability", "setting": "[5]; first compound 0.005 µM", "result": 0.205},
      {"measurement": "relative viability", "setting": "[5]; first compound 0.01581 µM", "result": 0.164},
      {"measurement": "relative viability", "setting": "[5]; first compound 0.05 µM", "result": 0.211},
      {"measurement": "relative viability", "setting": "[5]; first compound 0.1581 µM", "result": 0.127},
      {"measurement": "relative viability", "setting": "[5]; first compound 0.5 µM", "result": 0.111},
      {"measurement": "relative viability", "setting": "[6]; first compound 0.005 µM", "result": 0.234},
      {"measurement": "relative viability", "setting": "[6]; first compound 0.01581 µM", "result": 0.249},
      {"measurement": "relative viability", "setting": "[6]; first compound 0.05 µM", "result": 0.15},
      {"measurement": "relative viability", "setting": "[6]; first compound 0.1581 µM", "result": 0.0989},
      {"measurement": "relative viability", "setting": "[6]; first compound 0.5 µM", "result": 0.132},
      {"measurement": "relative viability", "setting": "[7]; first compound 0.005 µM", "result": 0.349},
      {"measurement": "relative viability", "setting": "[7]; first compound 0.01581 µM", "result": 0.332},
      {"measurement": "relative viability", "setting": "[7]; first compound 0.05 µM", "result": 0.337},
      {"measurement": "relative viability", "setting": "[7]; first compound 0.1581 µM", "result": 0.242},
      {"measurement": "relative viability", "setting": "[7]; first compound 0.5 µM", "result": 0.255},
      {"measurement": "relative viability", "setting": "[8]; first compound 0.005 µM", "result": 0.294},
      {"measurement": "relative viability", "setting": "[8]; first compound 0.01581 µM", "result": 0.286},
      {"measurement": "relative viability", "setting": "[8]; first compound 0.05 µM", "result": 0.276},
      {"measurement": "relative viability", "setting": "[8]; first compound 0.1581 µM", "result": 0.17},
      {"measurement": "relative viability", "setting": "[8]; first compound 0.5 µM", "result": 0.172},
      {"measurement": "relative viability", "setting": "[9]; first compound 0.005 µM", "result": 0.439},
      {"measurement": "relative viability", "setting": "[9]; first compound 0.01581 µM", "result": 0.27},
      {"measurement": "relative viability", "setting": "[9]; first compound 0.05 µM", "result": 0.188},
      {"measurement": "relative viability", "setting": "[9]; first compound 0.1581 µM", "result": 0.131},
      {"measurement": "relative viability", "setting": "[9]; first compound 0.5 µM", "result": 0.138},
      {"measurement": "relative viability", "setting": "[10]; first compound 0.005 µM", "result": 0.705},
      {"measurement": "relative viability", "setting": "[10]; first compound 0.01581 µM", "result": 0.619},
      {"measurement": "relative viability", "setting": "[10]; first compound 0.05 µM", "result": 0.659},
      {"measurement": "relative viability", "setting": "[10]; first compound 0.1581 µM", "result": 0.472},
      {"measurement": "relative viability", "setting": "[10]; first compound 0.5 µM", "result": 0.424},
      {"measurement": "relative viability", "setting": "[11]; first compound 0.005 µM", "result": 0.336},
      {"measurement": "relative viability", "setting": "[11]; first compound 0.01581 µM", "result": 0.353},
      {"measurement": "relative viability", "setting": "[11]; first compound 0.05 µM", "result": 0.562},
      {"measurement": "relative viability", "setting": "[11]; first compound 0.1581 µM", "result": 0.271},
      {"measurement": "relative viability", "setting": "[11]; first compound 0.5 µM", "result": 0.257},
      {"measurement": "relative viability", "setting": "[12]; first compound 0.005 µM", "result": 0.712},
      {"measurement": "relative viability", "setting": "[12]; first compound 0.01581 µM", "result": 0.702},
      {"measurement": "relative viability", "setting": "[12]; first compound 0.05 µM", "result": 0.7},
      {"measurement": "relative viability", "setting": "[12]; first compound 0.1581 µM", "result": 0.482},
      {"measurement": "relative viability", "setting": "[12]; first compound 0.5 µM", "result": 0.483},
      {"measurement": "relative viability", "setting": "[13]; first compound 0.005 µM", "result": 0.666},
      {"measurement": "relative viability", "setting": "[13]; first compound 0.01581 µM", "result": 0.569},
      {"measurement": "relative viability", "setting": "[13]; first compound 0.05 µM", "result": 0.503},
      {"measurement": "relative viability", "setting": "[13]; first compound 0.1581 µM", "result": 0.342},
      {"measurement": "relative viability", "setting": "[13]; first compound 0.5 µM", "result": 0.321},
      {"measurement": "relative viability", "setting": "[14]; first compound 0.005 µM", "result": 0.687},
      {"measurement": "relative viability", "setting": "[14]; first compound 0.01581 µM", "result": 0.608},
      {"measurement": "relative viability", "setting": "[14]; first compound 0.05 µM", "result": 0.472},
      {"measurement": "relative viability", "setting": "[14]; first compound 0.1581 µM", "result": 0.472},
      {"measurement": "relative viability", "setting": "[14]; first compound 0.5 µM", "result": 0.448},
      {"measurement": "relative viability", "setting": "[15]; first compound 0.005 µM", "result": 0.48},
      {"measurement": "relative viability", "setting": "[15]; first compound 0.01581 µM", "result": 0.564},
      {"measurement": "relative viability", "setting": "[15]; first compound 0.05 µM", "result": 0.53},
      {"measurement": "relative viability", "setting": "[15]; first compound 0.1581 µM", "result": 0.343},
      {"measurement": "relative viability", "setting": "[15]; first compound 0.5 µM", "result": 0.349},
      {"measurement": "relative viability", "setting": "[16]; first compound 0.005 µM", "result": 0.556},
      {"measurement": "relative viability", "setting": "[16]; first compound 0.01581 µM", "result": 0.509},
      {"measurement": "relative viability", "setting": "[16]; first compound 0.05 µM", "result": 0.519},
      {"measurement": "relative viability", "setting": "[16]; first compound 0.1581 µM", "result": 0.422},
      {"measurement": "relative viability", "setting": "[16]; first compound 0.5 µM", "result": 0.295},
      {"measurement": "relative viability", "setting": "[17]; first compound 0.005 µM", "result": 0.161},
      {"measurement": "relative viability", "setting": "[17]; first compound 0.01581 µM", "result": 0.0896},
      {"measurement": "relative viability", "setting": "[17]; first compound 0.05 µM", "result": 0.114},
      {"measurement": "relative viability", "setting": "[17]; first compound 0.1581 µM", "result": 0.0408},
      {"measurement": "relative viability", "setting": "[17]; first compound 0.5 µM", "result": 0.0434},
      {"measurement": "relative viability", "setting": "[18]; first compound 0.005 µM", "result": 0.824},
      {"measurement": "relative viability", "setting": "[18]; first compound 0.01581 µM", "result": 0.763},
      {"measurement": "relative viability", "setting": "[18]; first compound 0.05 µM", "result": 0.581},
      {"measurement": "relative viability", "setting": "[18]; first compound 0.1581 µM", "result": 0.468},
      {"measurement": "relative viability", "setting": "[18]; first compound 0.5 µM", "result": 0.507},
      {"measurement": "relative viability", "setting": "[19]; first compound 0.005 µM", "result": 0.677},
      {"measurement": "relative viability", "setting": "[19]; first compound 0.01581 µM", "result": 0.568},
      {"measurement": "relative viability", "setting": "[19]; first compound 0.05 µM", "result": 0.475},
      {"measurement": "relative viability", "setting": "[19]; first compound 0.1581 µM", "result": 0.342},
      {"measurement": "relative viability", "setting": "[19]; first compound 0.5 µM", "result": 0.29}
    ]}
  ]
}
